The values that follow come from patent publication US11066414B2, “Cot modulators and methods of use thereof” (Gilead Sciences, Inc., priority 2015, dated 2021).

The pEC50 is the EC50 on a negative log10 scale, so that one unit is a factor of ten.

pEC50: −log10 of the molar value.

This test deals with TNFα. The test is described as follows: Cot Monocyte TNFα Cell Based Assay. To be noted: Homo sapiens, Monocyte, read-out: EC50 TNF, LPS-stimulated human monocytes, TNFα.
Regarding `CC(C)(C)CNc1c(C#N)cnc2c(Cl)cc(N[C@H](c3cn(C4(C(F)(F)F)CC4)nn3)c3ccc(F)c4cnccc34)cc12` [Example 616, (S)-8-chloro-6-(((8-fluoroisoquinolin-5-yl)(1-(1-(trifluoromethyl)cyclopropyl)-1H-1,2,3-triazol-4-yl)methyl)amino)-4-(neopentylamino)quinoline-3-carbonitrile], the negative logarithm of the EC50 (pEC50) is 6.98.
`Cc1ncoc1[C@H](Nc1cc(Cl)c2ncc(C#N)c(NCC(C)(C)C)c2c1)c1cn(C2(C(F)F)CC2)nn1` [Example 630, (R)-8-chloro-6-(((1-(1-(difluoromethyl)cyclopropyl)-1H-1,2,3-triazol-4-yl)(4-methyloxazol-5-yl)methyl)amino)-4-(neopentylamino)quinoline-3-carbonitrile]: the pEC50 is 6.00.
On to `COc1ccnc2cccc([C@H](Nc3cc(Cl)c4ncc(C#N)c(NCC(C)(C)C)c4c3)c3cn(C4(C(F)(F)F)CC4)nn3)c12` [Example 632, (S)-8-chloro-6-(((4-methoxyquinolin-5-yl)(1-(1-(trifluoromethyl)cyclopropyl)-1H-1,2,3-triazol-4-yl)methyl)amino)-4-(neopentylamino)quinoline-3-carbonitrile], for which the pEC50 is 6.00.
The value for `Cc1nc(F)ccc1[C@H](Nc1cc(C#N)c2ncc(C#N)c(NCC(C)(C)C)c2c1)c1cn(C2(C(F)(F)F)COC2)nn1` [Example 644, (S)-6-(((6-fluoro-2-methylpyridin-3-yl)(1-(3-(trifluoromethyl)oxetan-3-yl)-1H-1,2,3-triazol-4-yl)methyl)amino)-4-(neopentylamino)quinoline-3,8-dicarbonitrile] was 7.06; that for `Cc1nc(F)ccc1[C@H](Nc1cc(Cl)c2ncc(C#N)c(NCC(C)(C)C)c2c1)c1nnn(C2CC2)c1C` [Example 647, (S)-8-chloro-6-(((1-cyclopropyl-5-methyl-1H-1,2,3-triazol-4-yl)(6-fluoro-2-methylpyridin-3-yl)methyl)amino)-4-(neopentylamino)quinoline-3-carbonitrile] was 6.88.
The value for `CC(C)(C)CNc1c(C#N)cnc2c(Cl)cc(N[C@H](c3cn(C4(C(F)(F)F)CC4)nn3)c3ccc(Cl)c4cnccc34)cc12` [Example 651, (S)-8-chloro-6-(((8-chloroisoquinolin-5-yl)(1-(1-(trifluoromethyl)cyclopropyl)-1H-1,2,3-triazol-4-yl)methyl)amino)-4-(neopentylamino)quinoline-3-carbonitrile] was 6.87; that for `Cn1ncc2c([C@H](Nc3cc(Cl)c4ncc(C#N)c(NCC(C)(C)C)c4c3)c3cn(Cc4c(F)cccc4F)nn3)cccc21` [Example 655, (S)-8-chloro-6-(((1-(2,6-difluorobenzyl)-1H-1,2,3-triazol-4-yl)(1-methyl-1H-indazol-4-yl)methyl)amino)-4-(neopentylamino)quinoline-3-carbonitrile] was 6.98.
In the case of `Cc1ncoc1[C@H](Nc1cc(C#N)c2ncc(C#N)c(NCC(C)(C)C)c2c1)c1cn(C2(C(F)F)CC2)nn1` [Example 657, (R)-6-(((1-(1-(difluoromethyl)-cyclopropyl)-1H-1,2,3-triazol-4-yl)(4-methyloxazol-5-yl)methyl)amino)-4-(neopentylamino)quinoline-3,8-dicarbonitrile], the negative logarithm of the EC50 (pEC50) is 6.09.
Consider `Cn1ccc2c([C@H](Nc3cc(Cl)c4ncc(C#N)c(NCC(C)(C)C)c4c3)c3cn(C4(C(F)(F)F)CC4)nn3)ccnc21` [Example 658, (S)-8-chloro-6-(((1-methyl-1H-pyrrolo[2,3-b]pyridin-4-yl)(1-(1-(trifluoromethyl)-cyclopropyl)-1H-1,2,3-triazol-4-yl)methyl)amino)-4-(neopentylamino)quinoline-3-carbonitrile], for which the negative-log EC50 (pEC50) was 6.43.
